Assay results reported in US20090074815A1, “Immunomodulator Compounds as Vaccine Enhancers” (SCICLONE PHARMACEUTICALS, INC., priority 2005, published 2009).

Key:
[1] = system: IFN-γ production by ConA-stimulated splenocytes; test: IFN-γ production by ConA-stimulated splenocytes (EIA); assay type: in vivo, mice
[2] = system: leukocytes and lymphocytes in peripheral blood; test: Concentration of leukocytes and lymphocytes in peripheral blood before and after vaccination; assay type: in vivo, human; details: After vaccination
[3] = system: IL-4 production by OvA-stimulated splenocytes; test: OvA-stimulated production of IL-4 by splenocytes of OvA-immunized mice
Experimental: The OvA was administered subcutaneously to the crest in a volume of 200 μl. Mice were immunized on day 1 with OvA in complete Freund's adjuvant (CFA; Sigma) and on day 15 with the antigen in incomplete Freund's adjuvant (IFA; Sigma). The immune response was analyzed on day 29. Mice were also immunized with 10 μg/mouse of OvA using Alum as an adjuvant.
Thymuses and spleens from mice of each treatment group were pooled, and then minced with scissors. The minced tissues were suspended in sterile PBS to form cell suspensions, filtered through a double gauze layer and centrifuged. Cells were washed twice with PBS, re-suspended in RPMI-1640 (Sigma) with 2.0 mM of L-glutamine, 50 μM of mercaptoethanol, and 10 μg/ml of gentamycin (complete medium); and cell counts were made. (The splenocyte suspension was washed with a 0.86% solution of NH4Cl to pre-lyse erthrocytes.)
Assessment of Mitogen- and Antigen-Induced Production of Cytokines: Thymic cells (1×10^6/well) in complete medium with 2% FCS were stimulated with ConA (0, 1, and 2 μg/ml). […] Concentrations of IL-2, IL-4, IL-10, IL-12R40 and IFNγ in the supernatants were determined by solid-phase EIA with EIA Expansion Kits, available from BD Biosciences (formerly Pharmingen), in accordance with the manufacturer's instructions.

thymic cells = test: ConA-induced proliferation of thymic cells (3H-thymidine uptake); assay type: in vivo, mice; details: for Spontaneous proliferation (cpm) M ± SD / Induced proliferation (cpm) M ± SD / Stimulation index: thymic cells
Excerpt: Materials and Methods: Eighteen (18) to twenty (20) gram (g) male mice, purchased from the Rappolovo Animal Facility, Russia, were used in the studies described below. C57BL/6 (B6) mice were used to evaluate the effect of SCV-07 in non-immunized mice. CBAxC57BL/6 (F1) mice were used for studies of the effects of SCV-07 on the antigen-specific immune response. Mice were kept under the standard animal facility conditions and were provided with a standard diet and water ad libitum. Each treatment group included 4-5 mice. […] A suspension containing filling agents alone, which corresponded to the maximum amount of filling agents in the doses of SCV-07 administered to experimental animals, was used a control. […] Assessment of Mitogen- and Antigen-Induced Proliferation: […] Antigen-specific proliferation was studied by stimulating thymocytes and splenoctyes in vitro with different concentrations of OvA for 96 h. Twenty (20) to twenty-four (24) hours prior to completion of incubation, 3H-labeled thymidine (5 μCi/ml) was added to the cells. The cells were then transferred to fiberglass filters with a Titertek® semi-automatic cell harvester. Thymidine uptake was measured using a RackBeta 1217 (Wallac) liquid scintillation β-counter. For quantitative analysis of proliferation, the stimulation index (SI) was calculated as a ratio of the intensity of label inclusion in the stimulated cells to that in non-stimulated cells.

[4] = ConA 1 μg/ml, 0.01 μg/kg per os
[5] = Patients of group 2 (SCV-07 + vaccine)
[6] = ConA 1 μg/ml, 0.01 μg/kg Tablet, per os
[7] = ConA 1 μg/ml, 0.1 μg/kg Tablet, per os
[8] = ConA 1 μg/ml, 0.1 μg/kg i/p, Table 4
[9] = ConA 1 μg/ml, 0.1 μg/kg i/p, Table 5

Q: What does the source list for `N[C@H](CCC(=O)N[C@@H](Cc1c[nH]c2ccccc12)C(=O)O)C(=O)O` [SCV-07, γ-D-glutamyl-L-tryptophan]?
A: IFN-γ [1, 4]: 15499 pg/mL; IFN-γ ([1]; ConA 1 μg/ml, 0.1 μg/kg i/p): 13089 pg/mL; IFN-γ ([1]; ConA 1 μg/ml, 0.1 μg/kg per os): 15695 pg/mL; IFN-γ ([1]; ConA 1 μg/ml, 1.0 μg/kg i/p): 30951 pg/mL; IFN-γ ([1]; ConA 1 μg/ml, 1.0 μg/kg per os): 11411 pg/mL; IFN-γ ([1]; ConA 1 μg/ml, 10.0 μg/kg per os): 8238 pg/mL; IFN-γ ([1]; ConA 1 μg/ml, 100.0 μg/kg per os): 12990 pg/mL; IFN-γ ([1]; ConA 5 μg/ml, 0.01 μg/kg per os): 63227 pg/mL; IFN-γ ([1]; ConA 5 μg/ml, 0.1 μg/kg i/p): 87051 pg/mL; IFN-γ ([1]; ConA 5 μg/ml, 0.1 μg/kg per os): 65692 pg/mL; IFN-γ ([1]; ConA 5 μg/ml, 1.0 μg/kg i/p): 142155 pg/mL; IFN-γ ([1]; ConA 5 μg/ml, 1.0 μg/kg per os): 47683 pg/mL; IFN-γ ([1]; ConA 5 μg/ml, 10.0 μg/kg per os): 66185 pg/mL; IFN-γ ([1]; ConA 5 μg/ml, 100.0 μg/kg per os): 43670 pg/mL; IFN-γ ([1]; Spontaneous, 0.01 μg/kg per os): 0 pg/mL; IFN-γ ([1]; Spontaneous, 0.1 μg/kg i/p): 1393 pg/mL; IFN-γ ([1]; Spontaneous, 0.1 μg/kg per os): 0 pg/mL; IFN-γ ([1]; Spontaneous, 1.0 μg/kg i/p): 1738 pg/mL; IFN-γ ([1]; Spontaneous, 1.0 μg/kg per os): 1629 pg/mL; IFN-γ ([1]; Spontaneous, 10.0 μg/kg per os): 0 pg/mL; IFN-γ ([1]; Spontaneous, 100.0 μg/kg per os): 0 pg/mL; Leukocytes × 10^9/l ([2]; Healthy subjects (Group III)): 6.04 ± 0.31 10^9/l; Lymphocytes % ([2]; Healthy subjects (Group III)): 19.05 ± 1.13%; Lymphocytes × 10^9/l ([2]; Healthy subjects (Group III)): 1.19 ± 0.11 10^9/l; Lymphocytes % [2, 5]: 27.81 ± 2.04%; Lymphocytes × 10^9/l [2, 5]: 1.608 ± 0.096 10^9/l; Leukocytes × 10^9/l ([2]; Patients of group 2 (infectious syndrome, SCV-07 1 mg i.m. + hepatitis B vaccine)): 5.938 ± 0.351 10^9/l; levels of IL-4 production in supernatants of OvA-stimulated splenocytes ([3]; OvA/Alum, all animal groups): below the sensitivity of the test system; levels of IL-4 in supernatants of OvA-stimulated splenocytes ([3]; OvA/FA, all animals, below the sensitivity of the test-system): < 6 pg/mL; minimal dose of SCV-07 given as a crushed tablet which caused significant enhancement of proliferation (thymic cells; crushed tablet per os, ConA 1 μg/ml): 0.1 µg/kg; minimal SCV-07 dose which caused significant increase in proliferation of thymic cells (thymic cells; oral administration, the same as for i/p): 0.1 µg/kg; Spontaneous proliferation (cpm) M ± SD (thymic cells; 0.01 μg/kg Tablet, per os): 308 ± 104 cpm; Spontaneous proliferation (cpm) M ± SD (thymic cells; 0.01 μg/kg per os): 238 ± 64 cpm; Spontaneous proliferation (cpm) M ± SD (thymic cells; 0.1 μg/kg Tablet, per os): 395 ± 136 cpm; Spontaneous proliferation (cpm) M ± SD (thymic cells; 0.1 μg/kg i/p, Table 4): 268 ± 114 cpm; Spontaneous proliferation (cpm) M ± SD (thymic cells; 0.1 μg/kg i/p, Table 5): 251 ± 36 cpm; Spontaneous proliferation (cpm) M ± SD (thymic cells; 0.1 μg/kg per os): 250 ± 75 cpm; Spontaneous proliferation (cpm) M ± SD (thymic cells; 1.0 μg/kg Tablet, per os): 355 ± 62 cpm; Spontaneous proliferation (cpm) M ± SD (thymic cells; 1.0 μg/kg i/p, Table 4): 342 ± 83 cpm; Spontaneous proliferation (cpm) M ± SD (thymic cells; 1.0 μg/kg i/p, Table 5): 555 ± 20 cpm; Spontaneous proliferation (cpm) M ± SD (thymic cells; 1.0 μg/kg per os): 198 ± 44 cpm; Spontaneous proliferation (cpm) M ± SD (thymic cells; 10.0 μg/kg Tablet, per os): 317 ± 77 cpm; Spontaneous proliferation (cpm) M ± SD (thymic cells; 10.0 μg/kg per os): 246 ± 51 cpm; Spontaneous proliferation (cpm) M ± SD (thymic cells; 100.0 μg/kg per os): 272 ± 98 cpm; Induced proliferation (cpm) M ± SD (thymic cells; [6]): 3144 ± 582 cpm; Stimulation index (thymic cells; [6]): 10.2; Induced proliferation (cpm) M ± SD (thymic cells; [4]): 6698 ± 1465 cpm; Stimulation index (thymic cells; [4]): 28.1; Induced proliferation (cpm) M ± SD (thymic cells; [7]): 9900 ± 2021 cpm; Stimulation index (thymic cells; [7]): 25.1; Induced proliferation (cpm) M ± SD (thymic cells; [8]): 14261 ± 1400 cpm; Stimulation index (thymic cells; [8]): 53.3; Induced proliferation (cpm) M ± SD (thymic cells; [9]): 9897 ± 678 cpm; Stimulation index (thymic cells; [9]): 39.4
